Reference: ChEMBL document CHEMBL4002569, “Improved anticancer and antiparasitic activity of new lawsone Mannich bases” (Eur J Med Chem, 2017)
One block for each compound: values may come before it. The source made the active and inactive calls. No cut-off for these calls is given here.

What was measured:
[1] = tested on: MDA-MB-231; experiment: Antiproliferative activity against human MDA-MB-231 cells at >10 to 25 uM after 96 hrs by MTT assay; format: functional, cell-based
[2] = tested on: BXPC-3; experiment: Antiproliferative activity against human BxPC3 cells at <10 uM after 96 hrs by MTT assay; format: functional, cell-based
[3] = tested on: PC-3; experiment: Antiproliferative activity against human PC3 cells at >10 to 25 uM after 96 hrs by MTT assay; format: functional, cell-based
[4] = tested on: MDA-MB-231; experiment: Antiproliferative activity against human MDA-MB-231 cells at <10 uM after 96 hrs by MTT assay; format: functional, cell-based
[5] = tested on: PC-3; experiment: Antiproliferative activity against human PC3 cells at <10 uM after 96 hrs by MTT assay; format: functional, cell-based
[6] = tested on: BXPC-3; experiment: Antiproliferative activity against human BxPC3 cells at >10 to 25 uM after 96 hrs by MTT assay; format: functional, cell-based
[7] = tested on: 518A2; experiment: Antiproliferative activity against human 518A2 cells after 72 hrs by MTT assay; format: functional, cell-based; conditions: 518A2, 72 h
[8] = tested on: HCT-116; experiment: Antiproliferative activity against human HCT116 cells after 72 hrs by MTT assay; format: functional, cell-based; conditions: HCT-116, 72 h
[9] = tested on: PANC-1; experiment: Antiproliferative activity against human PANC1 cells after 72 hrs by MTT assay; format: functional, cell-based; conditions: PANC-1, 72 h
[10] = tested on: KB-V1; experiment: Antiproliferative activity against vinblastine-resistant human KBV1 cells after 72 hrs by MTT assay; format: functional, cell-based; conditions: KB-V1, 72 h
[11] = tested on: MDA-MB-231; experiment: Antiproliferative activity against human MDA-MB-231 cells at <25 uM after 96 hrs by MTT assay; format: functional, cell-based
[12] = tested on: PC-3; experiment: Antiproliferative activity against human PC3 cells at <25 uM after 96 hrs by MTT assay; format: functional, cell-based
[13] = tested on: BXPC-3; experiment: Antiproliferative activity against human BxPC3 cells at <25 uM after 96 hrs by MTT assay; format: functional, cell-based
[14] = tested on: BXPC-3; experiment: Antiproliferative activity against human BxPC3 cells at 1 to 50 uM after 96 hrs by MTT assay; format: functional, cell-based
[15] = tested on: PC-3; experiment: Antiproliferative activity against human PC3 cells at 1 to 50 uM after 96 hrs by MTT assay; format: functional, cell-based
[16] = tested on: MDA-MB-231; experiment: Antiproliferative activity against human MDA-MB-231 cells at 1 to 50 uM after 96 hrs by MTT assay; format: functional, cell-based
[17] = Selectivity index, ratio of IC50 for human MCF10A cells to IC50 for human PANC1 cells; format: functional
[18] = tested on: Trypanosoma brucei brucei; experiment: Antitrypanosomal activity against bloodstream trypomastigote form of Trypanosoma brucei brucei 65.3 […] after 72 hrs by Alamar Blue assay; format: functional, cell-based; conditions: Trypanosoma brucei, 65.3, 72 h
[19] = tested on: Entamoeba histolytica; experiment: Antiamoebic activity against Entamoeba histolytica assessed as growth inhibition at 25 ug/ml after 72 hrs by trypan blue dye-based hemocytometer relative to control; format: functional; conditions: read-out: GI
[20] = Selectivity index, ratio of IC50 for human MCF10A cells to IC50 for human HCT116 cells; format: functional
[21] = tested on: Entamoeba histolytica; experiment: Antiamoebic activity against Entamoeba histolytica assessed as growth inhibition at 50 ug/ml after 72 hrs by trypan blue dye-based hemocytometer relative to control; format: functional; conditions: read-out: GI
[22] = Selectivity index, ratio of IC50 for human MCF10A cells to IC50 for human PC3 cells; format: functional
[23] = tested on: Entamoeba histolytica; experiment: Antiamoebic activity against Entamoeba histolytica assessed as growth inhibition at 100 ug/ml after 24 hrs by trypan blue dye-based hemocytometer relative to control; format: functional; conditions: read-out: GI
[24] = tested on: PC-3; experiment: Antiproliferative activity against human PC3 cells after 96 hrs by MTT assay; format: functional, cell-based; conditions: PC-3, 96 h
[25] = Selectivity index, ratio of IC50 for human MCF10A cells to IC50 for human BxPC3 cells; format: functional
[26] = tested on: Entamoeba histolytica; experiment: Antiamoebic activity against Entamoeba histolytica assessed as growth inhibition at 100 ug/ml after 72 hrs by trypan blue dye-based hemocytometer relative to control; format: functional; conditions: read-out: GI
[27] = tested on: Entamoeba histolytica; experiment: Antiamoebic activity against Entamoeba histolytica assessed as growth inhibition at 100 ug/ml after 48 hrs by trypan blue dye-based hemocytometer relative to control; format: functional; conditions: read-out: GI
[28] = tested on: HeLa; experiment: Cytotoxicity against human HeLa cells assessed as effect on cell viability at 10 uM after 1 to 9 hrs by DAPI staining-based fluorescence microscopic method
[29] = tested on: 518A2; experiment: Induction of reactive oxygen species generation in human 518A2 cells at 0.1 uM after 24 hrs by NBT assay relative to control; format: functional
[30] = tested on: Trypanosoma brucei brucei; experiment: Antitrypanosomal activity against bloodstream trypomastigote form of Trypanosoma brucei brucei 65.3 assessed as decrease in parasite viability at 1 to 10 uM after 1 hr by DAPI staining-based fluorescence microscopic method; format: functional
[31] = tested on: Entamoeba histolytica; experiment: Antiamoebic activity against Entamoeba histolytica assessed as growth inhibition at 50 ug/ml after 48 hrs by trypan blue dye-based hemocytometer relative to control; format: functional; conditions: read-out: GI
[32] = tested on: Trypanosoma brucei brucei; experiment: Antitrypanosomal activity against bloodstream trypomastigote form of Trypanosoma brucei brucei 65.3 assessed as deformation of microtubule cytoskeleton at 1 to 10 uM after 3 to 6 hrs by DAPI staining-based fluorescence microscopic method; format: functional
[33] = Selectivity index, ratio of IC50 for human MCF10A cells to IC50 for human 518A2 cells; format: functional
[34] = tested on: HeLa; experiment: Cytotoxicity against human HeLa cells assessed as effect on cytoskeleton at 10 uM after 1 to 9 hrs by DAPI staining-based fluorescence microscopic method; format: cell-based
[35] = tested on: Entamoeba histolytica; experiment: Antiamoebic activity against Entamoeba histolytica assessed as growth inhibition at 25 ug/ml after 48 hrs by trypan blue dye-based hemocytometer relative to control; format: functional; conditions: read-out: GI
[36] = Selectivity index, ratio of IC50 for human MCF10A cells to IC50 for human MDA-MB-231 cells; format: functional
[37] = tested on: MDA-MB-231; experiment: Antiproliferative activity against human MDA-MB-231 cells after 96 hrs by MTT assay; format: functional, cell-based; conditions: MDA-MB-231, 96 h
[38] = tested on: MCF-10A; experiment: Antiproliferative activity against human MCF10A cells at 50 uM after 96 hrs by MTT assay; format: cell-based
[39] = tested on: BXPC-3; experiment: Antiproliferative activity against human BxPC3 cells after 96 hrs by MTT assay; format: functional, cell-based; conditions: BXPC-3, 96 h
[40] = tested on: Entamoeba histolytica; experiment: Antiamoebic activity against Entamoeba histolytica assessed as growth inhibition at 50 ug/ml after 24 hrs by trypan blue dye-based hemocytometer relative to control; format: functional; conditions: read-out: GI
[41] = tested on: Entamoeba histolytica; experiment: Antiamoebic activity against Entamoeba histolytica assessed as growth inhibition at 25 ug/ml after 24 hrs by trypan blue dye-based hemocytometer relative to control; format: functional; conditions: read-out: GI
[42] = Selectivity index, ratio of IC50 for human MCF10A cells to IC50 for vinblastine-resistant human KBV1 cells; format: functional
[43] = tested on: 518A2; experiment: Induction of reactive oxygen species generation in human 518A2 cells at 0.5 uM after 24 hrs by NBT assay relative to control; format: functional

SMILES: CCCCCCCNC(C1=C(O)C(=O)c2ccccc2C1=O)c1ccc(F)c(F)c1 (stereo not given)
growth inhibition (GI) [1]: Active
growth inhibition (GI) [2]: inactive
growth inhibition (GI) [3]: Active
growth inhibition (GI) [4]: inactive
growth inhibition (GI) [5]: inactive
growth inhibition (GI) [6]: Active

SMILES: O=C1C(O)=C(C(NCc2ccccn2)c2ccc(F)c(F)c2)C(=O)c2ccccc21 (stereo not given)
growth inhibition (GI) [1]: Active
growth inhibition (GI) [2]: inactive
growth inhibition (GI) [3]: Active
growth inhibition (GI) [4]: inactive
growth inhibition (GI) [5]: inactive
growth inhibition (GI) [6]: Active

IC50 [8]: 5.68 µM
IC50 [9]: 7.72 µM
IC50 [10]: 1.56 µM
SMILES: O=C1C(O)=C(C(NCc2ccc(F)c(F)c2)c2ccccn2)C(=O)c2ccccc21 (stereo not given)
IC50 [7]: 3.05 µM

SMILES: COc1cc(C(NCc2ccccc2)C2=C(O)C(=O)c3ccccc3C2=O)ccc1O (stereo not given)
growth inhibition (GI) [11]: inactive
growth inhibition (GI) [12]: inactive
growth inhibition (GI) [13]: inactive

SMILES: CCCCCCCCCCCCCCCCNC(C1=C(O)C(=O)c2ccccc2C1=O)c1ccc(F)c(F)c1 (stereo not given)
growth inhibition (GI) [1]: Active
growth inhibition (GI) [2]: inactive
growth inhibition (GI) [3]: Active
growth inhibition (GI) [4]: inactive
growth inhibition (GI) [5]: inactive
growth inhibition (GI) [6]: Active

IC50 [8]: 11.4 µM
IC50 [9]: 7.94 µM
IC50 [10]: 16.8 µM
SMILES: CCCCCCCCCCCCCCCCNC(C1=C(O)C(=O)c2ccccc2C1=O)c1ccc(O)c(OC)c1 (stereo not given)
IC50 [7]: 12.2 µM
growth inhibition (GI) [14]: Active
growth inhibition (GI) [15]: Active
growth inhibition (GI) [16]: Active

SMILES: CCCCCCCCCCCCCCNC(C1=C(O)C(=O)c2ccccc2C1=O)c1ccc(F)c(F)c1 (stereo not given)
growth inhibition (GI) [1]: Active
growth inhibition (GI) [2]: inactive
growth inhibition (GI) [3]: Active
growth inhibition (GI) [4]: inactive
growth inhibition (GI) [5]: inactive
growth inhibition (GI) [6]: Active

SMILES: CCCCCCCCCCCCNC(C1=C(O)C(=O)c2ccccc2C1=O)c1ccc(F)c(F)c1 (stereo not given)
growth inhibition (GI) [1]: Active
growth inhibition (GI) [2]: inactive
growth inhibition (GI) [3]: Active
growth inhibition (GI) [4]: inactive
growth inhibition (GI) [5]: inactive
growth inhibition (GI) [6]: Active

IC50 [18]: 0.303 µM
IC50 [8]: 2.08 µM
IC50 [24]: 0.67 µM
IC50 [9]: 2.19 µM
IC50 [10]: 0.83 µM
IC50 [37]: 1.1 µM
IC50 [39]: 0.82 µM
SMILES: CCCCCCCCCCCCCCCCNC(C1=C(O)C(=O)c2ccccc2C1=O)c1ccccn1 (stereo not given)
Ratio IC50 [17]: >22
inhibition of growth at 25 µg/mL [19]: 70.6%
Ratio IC50 [20]: >24
IC50 [7]: 1.41 µM
inhibition of growth at 50 µg/mL [21]: 85.3%
Ratio IC50 [22]: >75
inhibition of growth at 100 µg/mL [23]: 77.8%
Ratio IC50 [25]: >61
inhibition of growth at 100 µg/mL [26]: 82.8%
inhibition of growth at 100 µg/mL [27]: 80.9%
Activity [28]: Non-Toxic
Activity [29]: 50%
Activity [30]: inactive
inhibition of growth at 50 µg/mL [31]: 82.1%
Activity [32]: Active
Ratio IC50 [33]: >35
Activity [34]: Non-Toxic
inhibition of growth at 25 µg/mL [35]: 66%
Ratio IC50 [36]: >46
growth inhibition (GI) [38]: Non-Toxic
inhibition of growth at 50 µg/mL [40]: 66.6%
inhibition of growth at 25 µg/mL [41]: 60%
Ratio IC50 [42]: >60
Activity [43]: Active
